Assay results published in patent US12583870B2, “Azaheteroaryl compound and application thereof” (SHANGHAI BLUERAY BIOPHARMA CO., LTD., priority 2019, dated 2026).

Experiments:
[1] = system: trimethylation level of histone H3K27 in G401 cells; assay: ELISA (H3K27 trimethylation) analysis in G401 cells; type: cell-based; conditions: Homo sapiens, G-401, 72 hours, H3K27me3 standardized to H3
Method: 3-fold series dilution with DMSO was carried out on the representative compounds of the present disclosure; and 10 concentration gradients were detected for each compound, with the highest detection concentration of 10 μM. The compounds were diluted 200-fold into the G401 cells cultured in a 96-well plate (DMSO at a final concentration of 0.5%). After the cells, administered with the compound, were cultured for 72 hours, the trimethylation level of the histone H3K27 was detected using the ELISA method.
Extraction of the histone: in a 96-well plate, the compound-treated cells were washed three times with 1×PBS (10×PBS buffer (80 g NaCl (Sigma, product number S3014), 2 g KCl (Sigma, product number 60128), 14.4 g Na2HPO4 (Sigma, product number S5136), and 2.4 g KH2PO4 (Sigma, product number P9791) in 1 L of water, adjusting the pH to 7.4)). 100 μL of 0.4 N HCl was added into each well. The plate was placed at 4° C. and gently agitated for 2 hours to lyse the cells. The cell lysate was then neutralized with 80 μL of neutralization buffer (0.5 M disodium hydrogen phosphate, pH 12.5, 2.5 mM DTT; 1% cocktail (Sigma, product number P8340)) (the cell lysate and the neutralization buffer were thoroughly mixed to uniformity).
ELISA detection method: the cell lysate was transferred in parallel to two 384-well detection plates (PerkinElmer, OptiPlate-384HB, product number 6007290), wherein one of the plates was used to detect the H3K27 trimethylation level and the other plate was used to determine the level of H3. PBS was used to adjust the final volume to 50 μL/well. The plates were coated at 4° C. overnight. On the following day, the solution inside the wells was discarded and the plates were washed 5 times with TBST buffer (1×TBS (10×TBS: 24.2 g Tris (Sigma, product number T6066), 80 g NaCl (Sigma, product number S3014) in 1 L of water, adjusting the pH with HCl to 7.6), 0.1% Tween-20) and dried on an absorbent paper by inversion. 70 μL of blocking buffer (TBST, 5% BSA) was added into the coated reaction wells and the plates were incubated at room temperature for 1 hour. The blocking buffer was discarded and primary antibodies were added (30 μL/well). The desired primary antibodies were all diluted with a blocking buffer and the dilution factor was as follows: anti-H3K27me3 antibody (Cell Signaling Technology, product number 9733), 1:2000 dilution; anti-H3 antibody (Cell Signaling Technology, product number 4499), 1:10000 dilution. After the primary antibodies were added, the plates were placed at room temperature and incubated for 1 hour. After the plates were washed with TBST 5 times, the plates were dried by inversion. A secondary antibody (30 μL/well) was added to each of the reaction wells and the plates were incubated at room temperature for 1 hour. The secondary antibody (anti-rabbit antibody (Jackson ImmunoResearch, product number 111-035-003)) was diluted 2000-fold with a blocking buffer before use. After 1 hour, the plates were washed with TBST and dried by inversion. 30 μL of ECL substrate (Pierce, product number 34080) was added into each well and centrifuged at 2000 rpm for 30 seconds. The signal of each sample was detected using SpectraMax (Molecular Devices). Data processing: H3K27 methylation readings were first standardlized using H3 signals and 0.5% DMSO-treated samples was used as the control to calculate the inhibition percentage of the compounds. Data were fit to obtain Dose-Response curves using the GraphPad prism 5 program and the IC50 values of the test compounds were obtained.

KARPAS-422 cells = assay: Cell proliferation analysis, KARPAS-422, 13 days, CellTiter-Glo; type: cell-based; conditions: Homo sapiens, 312 h
Method: Human B-cell non-Hodgkin lymphoma cells, KARPAS-422 S, were cultured in a culture flask using standard cell culture conditions. The medium contained 15% fetal bovine serum (FBS, Invitrogen, product number 10099-141) and 1% penicillin/streptomycin solution (P/S) RPMI-1640 (Invitrogen, product number 11875), and the culture flask was placed and cultured in a sterile incubator at the temperature of 37° C. and […] with a relative humidity of […] To detect the effect of PRC2 inhibitors on cell proliferation, cells in exponential growth phase were taken and seeded into a 96-well plate (Corning, product number 3904) at a density of 1×10^4 cells/well, and 100 μL of the medium was added into each well. Subsequently, the compounds at different concentrations disclosed in the present disclosure were added into the wells where cells had already been seeded (9 concentration gradients were provided for each compound, with the highest detection concentration at 10 μM, 3-fold gradient dilution) and two replicates in parallel were provided for each treatment concentration. DMSO was at a final concentration of 0.5%. Afterwards, viable cell numbers were determined using Vi-CELL (Beckman Coulter) every 3-4 days. Cells counted were seeded into a new 96-well plate at the same density (1×10^4 cells/well) each time. The wells were supplemented with a fresh medium to 100 μL and at the same time, compounds at different concentrations were added. The cells were cultured to day 13. 100 μL of CellTiter-Glo (CellTiter-GloCellTiter-GloCellTiter-GloCTG) (Promega, product number G7573) was added into each well. The plate was placed in the dark at room temperature for 10-20 minutes and the luminescence signal was read using SpectraMax i3× (Molecular Devices).

| SMILES | IC50 [1] [µM] | IC50 (KARPAS-422 cells) [µM] |
| --- | --- | --- |
| Cc1ccc(-c2cnc(NCc3c(F)ccc4c3CCO4)n3cnnc23)c2nnc(C)n12 | 0.0008 | – |
| CC(C)(O)COCc1ccc(-c2cnc(NCc3c(F)ccc4c3CCO4)n3cnnc23)c2ncnn12 [1-((8-(5-(((5-fluoro-2,3-dihydrobenzofuran-4-yl)methyl)amino)-[1,2,4]triazolo[4,3-c]pyrimidin-8-yl)-[1,2,4]triazolo[1,5-a]pyridin-5-yl)methoxy)-2-methylpropan-2-ol] | 0.0064 | 0.0012 |
| CC(C)(O)CNCc1ccc(-c2cnc(NCc3c(F)ccc4c3CCO4)n3cnnc23)c2ncnn12 [1-(((8-(5-(((5-fluoro-2,3-dihydrobenzofuran-4-yl)methyl)amino)-[1,2,4]triazolo[4,3-c]pyrimidin-8-yl)-[1,2,4]triazolo[1,5-a]pyridin-5-yl)methyl)amino)-2-methylpropan-2-ol] | 0.0022 | 0.0021 |
| Cc1ccc(-c2cnc(NCc3c(F)ccc4c3CCO4)n3cnnc23)c2ncc(CC(=O)N3CCOCC3)n12 [2-(8-(5-(((5-fluoro-2,3-dihydrobenzofuran-4-yl)methyl)amino)-[1,2,4]triazolo[4,3-c]pyrimidin-8-yl)-5-methylimidazo[1,2-a]pyridin-3-yl)-1-morpholinoethan-1-one] | 0.0143 | 0.0057 |
| Cc1ccc(-c2cnc(NCc3c(F)ccc4c3CCO4)n3cnnc23)c2ncc(CC#N)n12 [2-(8-(5-(((5-fluoro-2,3-dihydrobenzofuran-4-yl)methyl)amino)-[1,2,4]triazolo[4,3-c]pyrimidin-8-yl)-5-methylimidazo[1,2-a]pyridin-3-yl)acetonitrile] | 0.007 | 0.0014 |
| CC(C)(O)c1ccc(-c2cnc(NCc3c(F)ccc4c3CCO4)n3cnnc23)c2ncnn12 [2-(8-(5-(((5-fluoro-2,3-dihydrobenzofuran-4-yl)methyl)amino)-[1,2,4]triazolo[4,3-c]pyrimidin-8-yl)-[1,2,4]triazolo[1,5-a]pyridin-5-yl)propan-2-ol] | 0.0004 | 0.0002 |
| CN(C)Cc1ccc(-c2cnc(NCc3c(F)ccc4c3CCO4)n3cnnc23)c2ncc(C#N)n12 [5-((dimethylamino)methyl)-8-(5-(((5-fluoro-2,3-dihydrobenzofuran-4-yl)methyl)amino)-[1,2,4]triazolo[4,3-c]pyrimidin-8-yl)imidazo[1,2-a]pyridine-3-carbonitrile] | 0.0007 | 0.0005 |
| CN(C)c1ccc(-c2cnc(NCc3c(F)ccc4c3CCO4)n3cnnc23)c2ncc(C#N)n12 [5-(dimethylamino)-8-(5-(((5-fluoro-2,3-dihydrobenzofuran-4-yl)methyl)amino)-[1,2,4]triazolo[4,3-c]pyrimidin-8-yl)imidazo[1,2-a]pyridine-3-carbonitrile] | 0.0009 | 0.0009 |
| CN(C)C(=O)c1cnc2c(-c3cnc(NCc4c(F)ccc5c4CCO5)n4cnnc34)cc(F)cn12 [6-fluoro-8-(5-(((5-fluoro-2,3-dihydrobenzofuran-4-yl)methyl)amino)-[1,2,4]triazolo[4,3-c]pyrimidin-8-yl)-N,N-dimethylimidazo[1,2-a]pyridine-3-carboxamide] | 0.0047 | 0.0024 |
| N#Cc1cnc2c(-c3cnc(NCc4c(F)ccc5c4CCO5)n4cnnc34)cc(F)cn12 [6-fluoro-8-(5-(((5-fluoro-2,3-dihydrobenzofuran-4-yl)methyl)amino)-[1,2,4]triazolo[4,3-c]pyrimidin-8-yl)imidazo[1,2-a]pyridine-3-carbonitrile] | 0.0089 | 0.0083 |
| N#Cc1cc(-c2cnc(NCc3c(F)ccc4c3CCO4)n3cnnc23)c2ncnn2c1 [8-(5-(((5-fluoro-2,3-dihydrobenzofuran-4-yl)methyl)amino)-[1,2,4]triazolo[4,3-c]pyrimidin-8-yl)-[1,2,4]triazolo[1,5-a]pyridine-6-carbonitrile] | 0.0143 | – |
| Fc1ccc2c(c1CNc1ncc(-c3ccc(C(F)F)n4ncnc34)c3nncn13)CCO2 [8-(5-(difluoromethyl)-[1,2,4]triazolo[1,5-a]pyridin-8-yl)-N-((5-fluoro-2,3-dihydrobenzofuran-4-yl)methyl)-[1,2,4]triazolo[4,3-c]pyrimidin-5-amine] | 0.0055 | – |
| Cc1nc2c(-c3cnc(NCc4c(F)ccc5c4CCO5)n4cnnc34)ccc(N(C)C)n2n1 [8-(5-(dimethylamino)-2-methyl-[1,2,4]triazolo[1,5-a]pyridin-8-yl)-N-((5-fluoro-2,3-dihydrobenzofuran-4-yl)methyl)-[1,2,4]triazolo[4,3-c]pyrimidin-5-amine] | 0.0006 | – |
| CN(C)c1c(F)cc(-c2cnc(NCc3c(F)ccc4c3CCO4)n3cnnc23)c2ncnn12 [8-(5-(dimethylamino)-6-fluoro-[1,2,4]triazolo[1,5-a]pyridin-8-yl)-N-((5-fluoro-2,3-dihydrobenzofuran-4-yl)methyl)-[1,2,4]triazolo[4,3-c]pyrimidin-5-amine] | 0.0028 | – |
| CN(C)c1ncc(-c2cnc(NCc3c(F)ccc4c3CCO4)n3cnnc23)c2ncnn12 [8-(5-(dimethylamino)-[1,2,4]triazolo[1,5-c]pyrimidin-8-yl)-N-((5-fluoro-2,3-dihydrobenzofuran-4-yl)methyl)-[1,2,4]triazolo[4,3-c]pyrimidin-5-amine] | 0.0018 | – |
| CN(C)c1ccc(-c2cnc(NCc3c(F)ccc4c3CCO4)n3cnnc23)c2nncn12 [8-(5-(dimethylamino)-[1,2,4]triazolo[4,3-a]pyridin-8-yl)-N-((5-fluoro-2,3-dihydrobenzofuran-4-yl)methyl)-[1,2,4]triazolo[4,3-c]pyrimidin-5-amine] | 0.0078 | – |
| CP(C)(=O)c1cnc2c(-c3cnc(NCc4c(F)ccc5c4CCO5)n4cnnc34)cc(F)cn12 [(6-fluoro-8-(5-(((5-fluoro-2,3-dihydrobenzofuran-4-yl)methyl)amino)-[1,2,4]triazolo[4,3-c]pyrimidin-8-yl)imidazo[1,2-a]pyridin-3-yl)dimethylphosphine oxide] | 0.0023 | – |
| CCOC(=O)c1cnc2c(-c3cnc(NCc4c(F)ccc5c4CCO5)n4cnnc34)ccc(C)n12 [Ethyl 8-(5-(((5-fluoro-2,3-dihydrobenzofuran-4-yl)methyl)amino)-[1,2,4]triazolo[4,3-c]pyrimidin-8-yl)-5-methylimidazo[1,2-a]pyridine-3-carboxylate] | – | 0.0047 |
| Cc1ccc(-c2cnc(NCc3c(F)ccc4c3CCO4)n3cnnc23)c2ncc(S(C)(=O)=O)n12 [N-((5-fluoro-2,3-dihydrobenzofuran-4-yl)methyl)-8-(5-methyl-3-(methylsulfonyl)imidazo[1,2-a]pyridin-8-yl)-[1,2,4]triazolo[4,3-c]pyrimidin-5-amine] | 0.088 | – |
